From BigSolDB 2.1

O=C(CCc1ccc(O)cc1)c1c(O)cc(O)cc1O
solubility (mole fraction)
Conditions	288.2 K	298.2 K	308.2 K	318.2 K	328.2 K
in 1,4-dioxane	0.0211	0.0249	0.029	0.0331	0.0384
in ethanol	0.0345	0.0373	0.0399	0.0421	0.0447
in ethyl acetate	0.0266	0.0283	0.0309	0.0343	0.037
in isopropanol	0.0351	0.0374	0.039	0.0411	0.0429
in methanol	0.0245	0.0259	0.0275	0.0299	0.0317
in n-butanol	0.0336	0.035	0.0362	0.0378	0.0394
in n-butyl acetate	0.0258	0.0281	0.0305	0.0323	0.0346
in n-hexanol	0.0289	0.0313	0.0332	0.0347	0.0366
in n-pentanol	0.0301	0.0324	0.034	0.0357	0.0378
in n-propanol	0.03	0.0318	0.0336	0.0358	0.0382
in sec-butanol	0.0101	0.014	0.0175	0.0217	0.0244
in water	3.46e-06	5.76e-06	1.12e-05	1.7e-05	2.7e-05
